Measured values reported in ChEMBL document CHEMBL4387753 (Bioorg Med Chem, 2019).
≈ marks a conversion by molar mass, not a printed value. Calls of active or inactive are those of the source. The rule behind the calls is not given here.

Columns and labels:
Bacillus subtilis = experiment: Antibacterial activity against Bacillus subtilis ATCC 9372 incubated for 24 hrs by CLSI protocol based broth microdilution method; format: functional; conditions: ATCC 9372, 24 h
Bacillus pumilus [1] = experiment: Antibacterial activity against Bacillus pumilus CMCC63202 incubated for 24 hrs by CLSI protocol based broth microdilution method; format: functional; conditions: CMCC63202, 24 h
Staphylococcus aureus [2] = experiment: Antibacterial activity against Staphylococcus aureus ATCC 25923 incubated for 24 hrs by CLSI protocol based broth microdilution method; format: functional; conditions: ATCC 25923, 24 h
Staphylococcus aureus [3] = experiment: Antibacterial activity against methicillin-resistant Staphylococcus aureus ATCC 43300 incubated for 24 hrs by CLSI protocol based broth microdilution method; format: functional; conditions: ATCC 43300, 24 h
Staphylococcus aureus [4] = experiment: Antibacterial activity against penicillin-resistant Staphylococcus aureus clinical isolate incubated for 24 hrs by CLSI protocol based broth microdilution method; format: functional
Escherichia coli = experiment: Antibacterial activity against Escherichia coli ATCC 25922 incubated for 24 hrs by CLSI protocol based broth microdilution method; format: functional; conditions: ATCC 25922, 24 h
Pseudomonas aeruginosa = experiment: Antibacterial activity against Pseudomonas aeruginosa ATCC 27853 incubated for 24 hrs by CLSI protocol based broth microdilution method; format: functional; conditions: ATCC 27853, 24 h
[5] = target: T1, Cell division protein FtsZ (Bacillus subtilis (strain 168)) (UniProt P17865); experiment: Induction of Bacillus subtilis FtsZ polymerization in presence of GTP at 5 ug/ml measured over 30 mins by microtiter plate-based light-scattering assay
T1 sequence (whole entry): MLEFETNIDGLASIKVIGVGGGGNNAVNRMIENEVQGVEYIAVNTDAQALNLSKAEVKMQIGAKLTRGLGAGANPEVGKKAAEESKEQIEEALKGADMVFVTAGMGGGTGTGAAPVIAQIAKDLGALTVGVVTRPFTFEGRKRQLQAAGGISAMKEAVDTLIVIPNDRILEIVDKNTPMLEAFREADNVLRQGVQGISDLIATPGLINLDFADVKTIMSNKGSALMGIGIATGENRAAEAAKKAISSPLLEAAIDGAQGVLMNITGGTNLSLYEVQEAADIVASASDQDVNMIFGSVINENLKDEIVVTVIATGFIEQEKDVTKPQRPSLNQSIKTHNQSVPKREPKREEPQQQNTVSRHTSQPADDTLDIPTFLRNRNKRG

[6] = Stability in mouse plasma assessed as degradation of compound at 25 ug/ml incubated for 24 hrs by RP-HPLC analysis; format: ADME, cell-free
[7] = Clearance in mouse liver microsomes incubated for 20 mins in presence of NADPH by RP-HPLC analysis; format: ADME, Microsome
[8] = Half life in mouse liver microsomes in presence of NADPH by RP-HPLC analysis; format: ADME, Microsome
Staphylococcus aureus [9] = experiment: Antibacterial activity against Staphylococcus aureus clinical isolate incubated for 24 hrs by CLSI protocol based broth microdilution method; format: functional
Staphylococcus aureus [10] = experiment: Ratio of MBC for Staphylococcus aureus ATCC 25923 to MIC for Staphylococcus aureus ATCC 25923; format: functional
Staphylococcus aureus [11] = experiment: Bactericidal activity against methicillin-resistant Staphylococcus aureus ATCC 43300 assessed as log reduction in viable bacterial count at 1 to 8 times MIC incubated for 24 hrs by time-kill curve assay; format: functional
Bacillus pumilus [12] = experiment: Effect on bacterial cell morphology in Bacillus pumilus CMCC63202 assessed as increase in bacterial cell length at 0.5 times MIC incubated for 18 hrs by phase-contrast optical microscopic analysis; format: functional, organism-based
[13] = target: T1, Cell division protein FtsZ (Bacillus subtilis (strain 168)); experiment: Induction of Bacillus subtilis FtsZ polymerization in presence of GTP measured over 30 mins by microtiter plate-based light-scattering assay
[14] = Half life in mouse plasma at 25 ug/ml incubated for 24 hrs by RP-HPLC analysis; format: ADME, cell-free
HeLa = experiment: Growth inhibition of human HeLa cells incubated for 48 hrs by MTT assay; format: cell-based
Staphylococcus aureus [15] = experiment: Bactericidal activity against Staphylococcus aureus ATCC 25923 assessed as 3 log reduction in number of colony forming units incubated for 24 hrs followed by aliquots transfer to tryptic soy agar and grown for 24 hrs; format: functional; conditions: ATCC 25923, 24 h
Staphylococcus aureus [16] = experiment: Bactericidal activity against Staphylococcus aureus ATCC 43300 assessed as 3 log reduction in number of colony forming units incubated for 24 hrs followed by aliquots transfer to tryptic soy agar and grown for 24 hrs; format: functional; conditions: ATCC 43300, 24 h
Staphylococcus aureus [17] = experiment: Bactericidal activity against penicillin-resistant Staphylococcus aureus clinical isolate assessed as 3 log reduction in number of colony forming units incubated for 24 hrs followed by aliquots transfer to tryptic soy agar and grown for 24 hrs; format: functional
Staphylococcus aureus [18] = experiment: Bactericidal activity against methicillin-resistant Staphylococcus aureus ATCC 43300 assessed as log reduction in viable bacterial count at 4 ug/ml incubated for 24 hrs by time-kill curve assay; format: functional
Staphylococcus aureus [19] = experiment: Bactericidal activity against methicillin-resistant Staphylococcus aureus ATCC 43300 assessed as log reduction in viable bacterial count at 2 ug/ml incubated for 24 hrs by time-kill curve assay; format: functional

Row | Structure (SMILES) | MIC (Bacillus subtilis) [µg/mL] | MIC (Bacillus pumilus [1]) [µg/mL] | MIC (Staphylococcus aureus [2]) [µg/mL] | MIC (Staphylococcus aureus [3]) [µg/mL] | MIC (Staphylococcus aureus [4]) [µg/mL] | MIC (Escherichia coli) [µg/mL] | MIC (Pseudomonas aeruginosa) [µg/mL] | Activity [5] | Stability [6] | CLH [7] [%] | half-life [8] [h] | MIC (Staphylococcus aureus [9]) [µg/mL] | Ratio (Staphylococcus aureus [10]) | MBC (Staphylococcus aureus [15]) [µg/mL] | MBC (Staphylococcus aureus [16]) [µg/mL] | MBC (Staphylococcus aureus [17]) [µg/mL] | also measured
1 | NC(=O)c1c(F)ccc(OCc2nn(-c3ccc(Br)cc3)c(=O)[nH]2)c1F | > 64 | > 64 | > 64 | > 64 | > 64 | > 64 | > 64 | inactive | Stable | 24.3 | > 1.5 |  |  |  |  |  | 
2 | NC(=O)c1c(F)ccc(OCc2nn(-c3ccc(Br)cc3)c(=O)o2)c1F | 0.125 (≈ 0.293 µM) | 1 (≈ 2.35 µM) | 1 (≈ 2.35 µM) | 1 (≈ 2.35 µM) | 1 (≈ 2.35 µM) | > 64 | > 64 |  | Unstable | 24.3 | > 1.5 | 0.5 (≈ 1.17 µM) | 1 | 1 (≈ 2.35 µM) | 1 (≈ 2.35 µM) | 1 (≈ 2.35 µM) | Activity (Staphylococcus aureus [11]): 4 log10CFU/ml; Activity (Bacillus pumilus [12]): Active; Activity [13]: Dose-dependent effect; half-life at 25 ug/ml [14]: 2.5 h; IC50 (HeLa): > 64 µg/mL
3 | CC(=O)NC[C@H]1CN(c2ccc(N3CCOCC3)c(F)c2)C(=O)O1 [LINEZOLID] | 0.5 (≈ 1.48 µM) | 2 (≈ 5.93 µM) |  |  |  | > 64 | > 64 | inactive |  |  |  | 1 (≈ 2.96 µM) |  | > 64 | > 64 | > 64 | Activity (Staphylococcus aureus [18]): 1 log10CFU/ml
4 | NC(=O)c1c(F)ccc(OCc2nc3cc(Cl)cnc3s2)c1F | 0.5 (≈ 1.41 µM) | 0.5 (≈ 1.41 µM) | 1 (≈ 2.81 µM) | 1 (≈ 2.81 µM) | 1 (≈ 2.81 µM) | > 64 | > 64 |  |  |  |  | 0.5 (≈ 1.41 µM) | 1 | 1 (≈ 2.81 µM) | 1 (≈ 2.81 µM) | 1 (≈ 2.81 µM) | Activity (Staphylococcus aureus [19]): 4 log10CFU/ml
